Measurements reported in ChEMBL document CHEMBL3751661, “The influence of 5-HT(2A) activity on a 5-HT(2C) specific in vivo assay used for early identification of multiple acting SERT and 5-HT(2C) receptor ligands” (Bioorg Med Chem Lett, 2016).
Active and inactive are the calls of the source. The rule behind the calls is not given here.

Assays:
[1] = Intrinsic clearance in mouse liver microsomes at 2.5 uM; type: ADME
[2] = biological target: 5-hydroxytryptamine receptor 2A (Rattus norvegicus, UniProt P14842); assay: Displacement of [3H]ketanserin from 5HT2A in Wistar rat frontal cortex membranes after 1 hr by liquid scintillation spectrometry; type: cell membranes, Membrane
Sequence of 5-hydroxytryptamine receptor 2A (Rattus norvegicus, UniProt P14842) (P14842 whole entry): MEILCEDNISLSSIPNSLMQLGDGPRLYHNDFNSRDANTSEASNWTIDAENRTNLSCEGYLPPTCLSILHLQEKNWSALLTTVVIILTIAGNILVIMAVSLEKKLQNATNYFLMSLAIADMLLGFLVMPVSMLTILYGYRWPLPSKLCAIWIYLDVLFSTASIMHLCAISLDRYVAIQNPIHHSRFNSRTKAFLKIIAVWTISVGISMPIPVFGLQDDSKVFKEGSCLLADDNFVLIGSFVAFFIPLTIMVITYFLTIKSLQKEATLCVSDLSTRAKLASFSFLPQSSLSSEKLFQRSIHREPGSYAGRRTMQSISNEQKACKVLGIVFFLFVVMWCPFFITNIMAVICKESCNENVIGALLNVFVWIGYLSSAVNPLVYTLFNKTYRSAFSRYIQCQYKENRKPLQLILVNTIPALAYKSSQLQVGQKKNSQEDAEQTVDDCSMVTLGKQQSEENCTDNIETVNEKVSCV

[3] = Efflux ratio of the compound from apical to basolateral side to basolateral to apical side in human vinblastine-treated Caco2 cells; type: ADME, cell-based; conditions: caco-2
[4] = system: Liver microsome; assay: Intrinsic clearance in human liver microsomes at 2.5 uM; type: ADME
[5] = biological target: Sodium-dependent serotonin transporter (Rattus norvegicus, UniProt P31652); assay: Displacement of [3H]citalopram from SERT in Sprague-Dawley rat whole brain membranes after 1 hr by liquid scintillation spectrometry; type: tissue-based, Membrane
Sequence of Sodium-dependent serotonin transporter (Rattus norvegicus, UniProt P31652) (P31652 whole entry): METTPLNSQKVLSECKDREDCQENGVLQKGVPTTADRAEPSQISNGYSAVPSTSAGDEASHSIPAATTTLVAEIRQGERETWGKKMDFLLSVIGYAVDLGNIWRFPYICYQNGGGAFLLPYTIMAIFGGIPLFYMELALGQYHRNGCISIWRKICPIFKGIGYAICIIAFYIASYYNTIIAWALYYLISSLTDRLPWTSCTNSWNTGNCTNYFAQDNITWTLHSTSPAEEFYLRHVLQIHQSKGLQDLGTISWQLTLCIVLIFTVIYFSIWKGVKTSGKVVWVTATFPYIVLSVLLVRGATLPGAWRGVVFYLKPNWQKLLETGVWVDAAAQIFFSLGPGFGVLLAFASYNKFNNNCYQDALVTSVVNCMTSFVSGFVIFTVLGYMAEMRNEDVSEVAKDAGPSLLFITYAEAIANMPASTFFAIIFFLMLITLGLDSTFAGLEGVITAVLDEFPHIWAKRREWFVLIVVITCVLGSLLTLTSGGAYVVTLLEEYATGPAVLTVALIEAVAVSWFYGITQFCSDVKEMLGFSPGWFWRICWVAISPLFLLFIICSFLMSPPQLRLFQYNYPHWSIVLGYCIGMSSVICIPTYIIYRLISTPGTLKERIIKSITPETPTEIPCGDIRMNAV

[6] = biological target: T1, 5-hydroxytryptamine receptor 2C (Rattus norvegicus, UniProt P08909); assay: Displacement of [3H]mesulergine from 5HT2C in Sprague-Dawley rat whole brain membranes after 1 hr by liquid scintillation spectrometry; type: tissue-based, Membrane
T1 sequence (P08909 whole entry): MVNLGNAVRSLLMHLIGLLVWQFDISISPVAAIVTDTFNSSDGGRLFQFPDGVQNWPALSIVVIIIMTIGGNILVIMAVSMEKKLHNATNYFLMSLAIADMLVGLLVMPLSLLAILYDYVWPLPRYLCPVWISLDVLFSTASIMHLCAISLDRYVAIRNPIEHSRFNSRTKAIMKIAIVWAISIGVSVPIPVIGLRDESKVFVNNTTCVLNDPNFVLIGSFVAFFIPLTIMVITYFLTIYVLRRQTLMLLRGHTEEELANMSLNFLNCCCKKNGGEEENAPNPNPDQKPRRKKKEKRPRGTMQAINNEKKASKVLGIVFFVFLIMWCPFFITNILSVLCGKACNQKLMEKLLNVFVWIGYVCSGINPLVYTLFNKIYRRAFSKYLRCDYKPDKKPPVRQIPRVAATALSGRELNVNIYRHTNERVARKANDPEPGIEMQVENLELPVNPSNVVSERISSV

[7] = biological target: 5-hydroxytryptamine receptor 2B (Homo sapiens) (UniProt P41595); assay: Displacement of [3H]-LSD from human 5HT2B receptor at 1 uM
Sequence of 5-hydroxytryptamine receptor 2B (Homo sapiens) (P41595 whole entry): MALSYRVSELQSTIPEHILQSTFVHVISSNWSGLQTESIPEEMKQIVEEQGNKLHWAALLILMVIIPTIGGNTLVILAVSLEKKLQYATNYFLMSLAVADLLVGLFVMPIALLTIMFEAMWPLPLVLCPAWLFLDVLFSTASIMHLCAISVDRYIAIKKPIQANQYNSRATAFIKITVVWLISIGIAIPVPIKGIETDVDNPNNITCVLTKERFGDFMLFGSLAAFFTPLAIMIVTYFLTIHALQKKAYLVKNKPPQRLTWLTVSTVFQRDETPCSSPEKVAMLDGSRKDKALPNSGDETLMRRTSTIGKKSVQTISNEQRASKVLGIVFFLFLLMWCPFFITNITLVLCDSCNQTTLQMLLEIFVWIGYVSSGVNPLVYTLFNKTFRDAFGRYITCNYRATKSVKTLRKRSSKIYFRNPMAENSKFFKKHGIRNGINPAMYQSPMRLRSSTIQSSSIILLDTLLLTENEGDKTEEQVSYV

[8] = biological target: 5-hydroxytryptamine receptor 1A (Homo sapiens) (UniProt P08908); assay: Displacement of [3H]-8-OH-DPAT from human 5HT1A receptor at 1 uM
Sequence of 5-hydroxytryptamine receptor 1A (Homo sapiens) (P08908 whole entry, looked up): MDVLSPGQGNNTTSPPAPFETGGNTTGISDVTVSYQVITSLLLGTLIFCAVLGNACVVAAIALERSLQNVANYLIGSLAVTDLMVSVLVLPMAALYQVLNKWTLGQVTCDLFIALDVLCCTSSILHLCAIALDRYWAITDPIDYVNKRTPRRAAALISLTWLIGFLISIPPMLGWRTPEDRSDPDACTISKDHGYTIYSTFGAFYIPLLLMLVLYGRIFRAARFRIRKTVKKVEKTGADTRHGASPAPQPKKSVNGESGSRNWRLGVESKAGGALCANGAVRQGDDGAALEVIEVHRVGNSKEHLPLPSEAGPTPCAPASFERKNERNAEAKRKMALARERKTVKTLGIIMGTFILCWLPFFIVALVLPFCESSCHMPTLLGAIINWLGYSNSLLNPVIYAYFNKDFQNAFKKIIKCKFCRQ

[9] = system: Mus musculus; assay: Inhibition of mCPP-induced hypomotility in ip dosed NMRI mouse assessed as rearing count up to 60 mins; type: functional; conditions: 1 h
[10] = system: Mus musculus; assay: Inhibition of mCPP-induced hypomotility in NMRI mouse assessed as reductiion in vertical hypoactivity at 20 to 40 mg/kg, ip up to 60 mins; type: functional, organism-based
[11] = system: Mus musculus; assay: Potentiation of mCPP-induced hypomotility in NMRI mouse at 20 to 40 mg/kg, ip up to 60 mins; type: ADME, organism-based; conditions: in vivo, 1 h
[12] = Apparent permeability of the compound from apical to basolateral side in human vinblastine-treated Caco2 cells; type: ADME, cell-based; conditions: caco-2
[13] = system: Mus musculus; assay: Induction of motor depression in C57BL/6J mouse assessed as total duration of immobility was measured over a period of 6 mins at 20 to 80 mg/kg, ip by tail suspension test; type: organism-based; conditions: in vivo, 0.1 h
[14] = biological target: T2, 5-hydroxytryptamine receptor 2A (Homo sapiens, UniProt P28223); assay: Antagonist activity at human 5-HT2A receptor expressed in CHO-K1 cells assessed as inhibition of 5HT-induced Ca2+ release at 10 uM by fluorometry assay; type: functional, cell-based
T2 sequence (P28223 whole entry): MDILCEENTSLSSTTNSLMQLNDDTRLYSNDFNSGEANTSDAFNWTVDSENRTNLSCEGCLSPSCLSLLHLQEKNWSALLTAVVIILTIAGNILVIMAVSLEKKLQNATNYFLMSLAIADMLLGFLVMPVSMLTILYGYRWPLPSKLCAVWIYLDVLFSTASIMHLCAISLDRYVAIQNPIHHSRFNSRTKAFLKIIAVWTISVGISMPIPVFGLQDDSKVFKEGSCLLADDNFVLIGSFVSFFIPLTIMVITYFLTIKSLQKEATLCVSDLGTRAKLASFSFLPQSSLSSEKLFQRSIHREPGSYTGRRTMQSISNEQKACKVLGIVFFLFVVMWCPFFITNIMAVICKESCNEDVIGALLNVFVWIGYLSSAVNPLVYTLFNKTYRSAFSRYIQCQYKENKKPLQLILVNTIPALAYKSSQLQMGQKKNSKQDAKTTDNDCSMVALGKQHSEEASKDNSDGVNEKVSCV

[15] = biological target: T3, 5-hydroxytryptamine receptor 2C (Homo sapiens) (UniProt P28335); assay: Antagonist activity at human 5-HT2C receptor expressed in CHO-K1 cells assessed as inhibition of 5HT-induced Ca2+ release at 10 uM by fluorometry assay; type: functional, cell-based
T3 sequence (whole entry): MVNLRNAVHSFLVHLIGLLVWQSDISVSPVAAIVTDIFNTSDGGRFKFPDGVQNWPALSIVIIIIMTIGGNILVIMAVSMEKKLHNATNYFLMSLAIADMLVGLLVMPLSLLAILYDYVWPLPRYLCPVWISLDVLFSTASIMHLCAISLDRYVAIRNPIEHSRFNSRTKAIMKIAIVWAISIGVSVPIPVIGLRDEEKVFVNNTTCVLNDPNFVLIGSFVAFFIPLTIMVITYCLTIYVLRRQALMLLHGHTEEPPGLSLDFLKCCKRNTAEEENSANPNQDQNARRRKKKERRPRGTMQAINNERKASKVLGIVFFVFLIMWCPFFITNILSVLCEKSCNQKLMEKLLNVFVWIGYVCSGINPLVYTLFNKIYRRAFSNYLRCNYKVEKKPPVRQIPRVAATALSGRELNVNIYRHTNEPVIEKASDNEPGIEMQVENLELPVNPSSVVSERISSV

[16] = biological target: Sodium-dependent serotonin transporter (Homo sapiens, UniProt P31645); assay: Binding affinity to SERT (unknown origin)
Sequence of Sodium-dependent serotonin transporter (Homo sapiens, UniProt P31645) (P31645 whole entry): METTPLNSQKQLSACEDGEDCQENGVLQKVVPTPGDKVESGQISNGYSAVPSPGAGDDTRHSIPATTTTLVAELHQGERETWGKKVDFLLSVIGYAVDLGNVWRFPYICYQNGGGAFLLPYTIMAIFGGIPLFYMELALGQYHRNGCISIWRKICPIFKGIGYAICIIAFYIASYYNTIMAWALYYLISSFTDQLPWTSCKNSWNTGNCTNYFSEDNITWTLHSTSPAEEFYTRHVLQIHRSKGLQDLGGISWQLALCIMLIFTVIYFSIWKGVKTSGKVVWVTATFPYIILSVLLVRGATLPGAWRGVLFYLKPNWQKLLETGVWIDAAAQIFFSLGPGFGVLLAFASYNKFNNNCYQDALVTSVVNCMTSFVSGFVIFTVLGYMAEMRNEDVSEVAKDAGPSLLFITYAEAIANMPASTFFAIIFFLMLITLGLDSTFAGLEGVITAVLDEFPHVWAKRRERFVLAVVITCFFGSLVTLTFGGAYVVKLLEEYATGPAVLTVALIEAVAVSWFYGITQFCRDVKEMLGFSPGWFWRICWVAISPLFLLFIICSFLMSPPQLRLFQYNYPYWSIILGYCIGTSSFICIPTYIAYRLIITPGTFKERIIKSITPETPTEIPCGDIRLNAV

[17] = biological target: Sodium-dependent serotonin transporter (Rattus norvegicus) (UniProt P31652); assay: Displacement of [3H]citalopram from SERT in Sprague-Dawley rat whole brain membranes at 1 uM after 1 hr by liquid scintillation spectrometry; type: tissue-based; conditions: Membrane
Sequence of Sodium-dependent serotonin transporter (Rattus norvegicus) (P31652 whole entry): as the sequence (P31652 whole entry) above

[18] = system: Mus musculus; assay: Induction of motor depression in C57BL/6J mouse assessed as total duration of immobility was measured over a period of 6 mins at 25 to 100 mg/kg, ip by tail suspension test; type: organism-based; conditions: in vivo, 0.1 h
[19] = system: Mus musculus; assay: Inhibition of mCPP-induced hypomotility in NMRI mouse assessed as reductiion in vertical hypoactivity at 40 to 80 mg/kg, ip up to 60 mins; type: functional, organism-based
[20] = system: Mus musculus; assay: Effect on spontaneous rearing behavior in NMRI mouse at 5 to 80 mg/kg, ip; type: ADME, organism-based; conditions: in vivo
[21] = system: Mus musculus; assay: Inhibition of hypomotility in NMRI mouse assessed as reduction in rearing at 20 mg/kg, ip in presence of 0.1 to 1 mg/kg, sc selective 5-HT2C antagonist SB-242084; type: functional, organism-based
[22] = biological target: T4, 5-hydroxytryptamine receptor 2C (Homo sapiens, UniProt P28335); assay: Binding affinity to 5HT2C (unknown origin)
T4 sequence (P28335 whole entry): T3 sequence (whole entry)

[23] = biological target: T2, 5-hydroxytryptamine receptor 2A; assay: Binding affinity to 5HT2A (unknown origin)

Row | SMILES | CLH [1] [mL/min/g] | Ki [2] [µM] | CLH [4] [mL/min/g] | Ki [5] [µM] | Ki [6] [µM] | further results
1 | CN(C)CCC(Oc1ccc(NC(=O)Nc2ccc3c(ccn3C)c2)cc1)c1ccccc1 (stereo unspecified) | 3.25 | 0.239 | 2.66 |  |  | Ratio [3]: 5.3
2 | COc1ccc(NC(=O)Nc2ccc(S(=O)(=O)N(CCN(C)C)Cc3ccccc3)cc2)cc1Cl |  |  |  | 0.093 | 0.0163 | 
3 | Cc1ccc(NC(=O)Nc2ccc(OC(CCN(C)C)c3ccccc3)cc2)cc1Cl (stereo unspecified) |  |  |  |  | 0.003 | 
4 | CN(C)CCN(Cc1ccccc1)S(=O)(=O)c1ccc(C(=O)N2CCN(c3cccc(Cl)c3)CC2)cc1 |  |  |  | 0.11 | 0.477 | 
5 | COc1ccc(NC(=O)Nc2ccc(OC(CCN(C)C)c3ccccc3)cc2)cc1Cl (stereo unspecified) | 1.25 | 0.233 | 0.68 |  |  | inhibition [7]: 87%; Ratio [3]: 2.2; inhibition [8]: -4%; ED50 [9]: 13.5 mg/kg
6 | CN(C)CCN(Cc1ccccc1)S(=O)(=O)c1ccc(NC(=O)Nc2ccc3c(ccn3C)c2)cc1 | 1.07 | 0.0584 | 3.94 | 0.0262 | 0.0145 | Activity [10]: inactive; inhibition [7]: 86%; Ratio [3]: 2.2; Activity [11]: Toxic; inhibition [8]: -4%; Papp A→B [12]: 86 nm/s; Activity [13]: Toxic; inhibition [14]: Active; inhibition [15]: Active
7 | Clc1cccc(N2CCNCC2)c1 [CHLOROPHENYLPIPERAZINE] |  |  |  |  |  | Ki [16]: 0.271 µM
8 | Cc1cc2c(cc1Cl)N(C(=O)Nc1ccc(S(=O)(=O)N(CCN(C)C)Cc3ccccc3)cc1)CC2 |  |  |  |  | 0.0435 | inhibition [17]: 11%
9 | Cc1cc2c(cc1Cl)N(C(=O)Nc1ccc(Oc3cccnc3C)nc1)CC2 [SB-242084] |  | 0.274 |  | 1.77 | 0.00016 | 
10 | Cc1cc2c(cc1Cl)N(C(=O)Nc1ccc(OC(CCN(C)C)c3ccccc3)cc1)CC2 (stereo unspecified) | 0.9 | 0.138 | 0.06 | 0.0655 | 0.0006 | ED50 [9]: 17.9 mg/kg
11 | CCn1ccc2cc(NC(=O)Nc3ccc(S(=O)(=O)N(CCN(C)C)Cc4ccccc4)cc3)ccc21 |  |  |  | 0.0656 | 0.0265 | 
12 | Cc1ccc(NC(=O)Nc2ccc(S(=O)(=O)N(CCN(C)C)Cc3ccccc3)cc2)cc1Cl |  |  |  | 0.209 | 0.0045 | 
13 | CN(C)CCN(Cc1ccccc1)S(=O)(=O)c1ccc(N2CCN(c3cccc(Cl)c3)CC2)cc1 | 1.57 | 0.0099 | 1.43 | 0.0297 | 0.0081 | inhibition [7]: 82%; Activity [18]: Toxic; inhibition [8]: -7%; Activity [19]: inactive; Activity [20]: Toxic; inhibition [14]: Active; inhibition [15]: Active; Activity [21]: inactive
14 | CN(C)CCN(Cc1ccccc1)S(=O)(=O)c1cccc(N2CCN(c3cccc(Cl)c3)CC2)c1 |  |  |  | 0.509 | 0.0061 | 
15 | CN(C)CCN(Cc1ccccc1)S(=O)(=O)c1ccc(NC(=O)N2CCN(c3cccc(Cl)c3)CC2)cc1 |  |  |  | 0.0368 | 0.0956 | 
16 | CN(C)CCN(Cc1ccccc1)S(=O)(=O)c1ccc(I)cc1 | 14.19 | 0.003 | 1.36 | 0.0204 | 0.0116 | Ki [16]: 0.0304 µM; Ki [22]: 0.008 µM; Ki [23]: 0.0018 µM
